In patent publication US8927563B2, “Kinase inhibitor” (Respivert Limited, priority 2013, dated 2015):
pIC50: −log10 of the molar value.

Legend:
p38 MAPKα = p38 MAPKα (Homo sapiens (Human), UniProt Q16539); assay: Phosphoflow assay, cellular p38 MAPKα inhibition in Jurkat cells; format: cell-based; conditions: H2O2 stimulated, read-out: IC50 Values, phospho-p38 MAPKα (converted)
Experimental: Jurkat T cells were cultured in starve medium (RPMI 1640+5% FBS) for 24 h prior to the experiment. Cells were harvested and resuspended at 10×10^6 cells/mL in starve medium and then plated into round-bottomed 96 well plates at 1×10^6 cells/well. Serial dilutions of test compound were added (1% final DMSO concentration) for 2 h prior to stimulation. Following pre-incubation with compound, cells were stimulated with H2O2 (0.05% final) for 5 min. The reaction was stopped by centrifugation at 2000 rpm (3 min, 4° C.), then the supernatant was removed and 100 μL of cold fix/perm solution (BD Fix/Perm kit #554714) added. Plates were incubated for 20 min at 4° C. before centrifugation and washing with supplied 1× wash medium (BD Fix/Perm kit #554714). Cells were stained for either phospho-p38α (T180/182), supplied by Cell Signalling Technology (9211s), or phospho-Lck (Y394), supplied by R&D (MAB7500). Antibodies were diluted to 5 μg/mL (R&D) or 1:200 (Cell Signalling Technology) in wash medium, before being incubated 1 h at 4° C. in the dark. Following 3 repeat washes with ice cold wash buffer, secondary antibody (anti-rabbit-FITC #F1362 or anti-mouse-FITC #F2883, both from Sigma) was added at a dilution of 1:1000 and incubated for 1 h at 4° C. in the dark. […] Cells were analysed by flow cytometry using BD Accuri C6.

Syk = Syk (Homo sapiens (Human), UniProt P43405); assay: Syk enzyme inhibition, Z-LYTE FRET; format: biochemical
Experimental: (§1) The enzyme inhibitory activities of compounds disclosed herein are determined by FRET using synthetic peptides labelled with both donor and acceptor fluorophores (Z-LYTE, Invitrogen Ltd., Paisley, UK).
(§2) The inhibitory activities of the compound of the invention against c-Src and Syk enzymes (Invitrogen) are evaluated in a similar fashion to that described hereinabove. The relevant enzyme (3000 ng/mL or 2000 ng/mL respectively, 2.5 μL) is incubated with the test compound (either 1 μg/mL, 0.1 μg/mL, 0.01 μg/mL, or 0.001 μg/mL, 2.5 μL each) for 2 hr at RT. The FRET peptides (8 μM, 2.5 μL) and appropriate ATP solutions (2.5 μL, 800 μM for c-Src, and 60 μM ATP for Syk) are then added to the enzymes/compound mixtures and the mixture incubated for 1 hr. Development reagent (protease, 5 μL) is added for 1 hr prior to detection in a fluorescence microplate reader (Varioskan® Flash, ThermoFisher Scientific).
(§3) In all cases, the site-specific protease cleaves non-phosphorylated peptide only and eliminates the FRET signal. Phosphorylation levels of each reaction are calculated using the ratio of coumarin emission (donor) over fluorescein emission (acceptor), for which high ratios indicate high phosphorylation and low ratios indicate low phosphorylation levels.

[1] = tested on: adoptive transfer colitis; assay: Adoptive transfer mouse model; format: in vivo, mice
Experimental: On Study day 0, female Balb/C mice are terminated and spleens obtained for CD45RB^high cell isolation (Using SCID IBD cell Separation protocol). Approximately 4×10^5 cells/mL CD45RB^high cells are then injected intraperitoneally (100 μL/mouse) into female SCID animals. On study day 14, mice are weighed and randomized into treatment groups based on body weight. On Day 14, the compound is administered BID, via oral gavage, in a vehicle comprising a defined mixture of corn oil (32.5%), transcutol (20%), maisine (12.5%) and cremophor ELP (35%) at the dose levels outlined below in Tables 6a and 6b and a dose volume of 5 mL/kg. Treatment continues until study day 42, at which point the animals are necropsied 4 hours after the morning administration. The colon length and weight are recorded and used as a secondary endpoint in the study as a measurement of colon oedema. The colon is then divided into six cross-sections, four of which are used for histopathology scoring (primary endpoint) and two are homogenised for cytokine analysis. Data shown is the % inhibition of the induction window between naïve animals and vehicle animals, where higher inhibition implies closer to the non-diseased, naïve, phenotype.

c-Src = c-Src (Homo sapiens (Human), UniProt P12931); assay: c-Src enzyme inhibition, Z-LYTE FRET; format: biochemical
Experimental: as §1, §2, §3

TNBS-induced colitis = TNBS-induced colitis in mice; format: in vivo
Experimental: Non-fasted, 10-12 week old, male BDF1 mice are dosed by oral gavage twice daily with either vehicle (5 mL/kg), reference item (Budesonide 2.5 mg/kg) or test compound (1 or 5 mg/kg) one day before (Day −1) stimulation of the inflammatory response by treatment with 2,4,6-trinitrobenzenesulphonic acid (TNBS) (15 mg/mL in 50% ethanol/50% saline). On Day 0 of the study, TNBS (200 μL) is administered intra-colonically via a plastic catheter with BID dosing of the vehicle, reference or test compound continuing for 2 or 4 days. During the study, animals are weighed every day and stool observations are made and recorded as a score, based on stool consistency. At the time of sacrifice on Day 2 (or Day 4), the large intestine is removed and the length and weight recorded. Sections of the colon are taken for histopathology scoring to determine disease severity.

[2] = 5 mg/kg orally BID, 2 days, SMEDDS vehicle

Chain of p38 MAPKα (Q16539 whole entry, looked up): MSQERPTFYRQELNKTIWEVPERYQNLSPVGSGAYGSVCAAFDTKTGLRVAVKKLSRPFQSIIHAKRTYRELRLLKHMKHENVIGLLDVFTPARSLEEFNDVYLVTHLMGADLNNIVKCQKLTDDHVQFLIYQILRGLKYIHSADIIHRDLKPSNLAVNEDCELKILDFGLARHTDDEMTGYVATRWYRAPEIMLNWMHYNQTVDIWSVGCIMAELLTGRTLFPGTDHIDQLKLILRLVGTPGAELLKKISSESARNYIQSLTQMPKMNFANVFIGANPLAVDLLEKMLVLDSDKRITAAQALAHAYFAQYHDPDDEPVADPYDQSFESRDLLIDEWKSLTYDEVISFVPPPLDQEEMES
Chain of c-Src (P12931 whole entry, looked up): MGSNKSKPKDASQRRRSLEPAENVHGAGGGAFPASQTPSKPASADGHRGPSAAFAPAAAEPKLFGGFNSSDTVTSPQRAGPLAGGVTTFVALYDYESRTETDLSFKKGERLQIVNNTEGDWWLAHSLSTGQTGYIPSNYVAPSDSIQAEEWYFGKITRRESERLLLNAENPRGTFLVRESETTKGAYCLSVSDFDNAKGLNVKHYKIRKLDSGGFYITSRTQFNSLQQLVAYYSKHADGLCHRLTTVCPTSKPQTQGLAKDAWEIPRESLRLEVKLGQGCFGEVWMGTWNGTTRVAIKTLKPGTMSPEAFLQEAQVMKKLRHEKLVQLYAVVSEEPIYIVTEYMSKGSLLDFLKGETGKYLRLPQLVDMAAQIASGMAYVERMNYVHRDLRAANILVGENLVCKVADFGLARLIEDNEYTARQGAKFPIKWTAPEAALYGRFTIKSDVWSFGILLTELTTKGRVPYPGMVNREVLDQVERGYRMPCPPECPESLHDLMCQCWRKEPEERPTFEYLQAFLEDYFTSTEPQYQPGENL

For `C#Cc1cc(Nc2nccc(Oc3ccc(NC(=O)Nc4cc(C(C)(C)C)cc(NS(C)(=O)=O)c4OC)c4ccccc34)n2)cc(C(=O)NCCOCCOCCOC)c1` [Compound I, 3-((4-((4-(3-(5-(tert-Butyl)-2-methoxy-3-(methylsulfonamido)phenyl)ureido)naphthalen-1-yl)oxy)pyrimidin-2-yl)amino)-5-ethynyl-N-(2-(2-(2-methoxyethoxy)ethoxy)ethyl)benzamide], the IC50 (p38 MAPKα) was 23.8 nM, the pIC50 (Syk) was 6.23 and the “IFNγ level in colon tissue” value ([1]; 3 mg/kg) was 10.8 ± 3.3 pg/mL. The “IL-8 level in colon tissue” value ([1]; 3 mg/kg) was 70.8 ± 22.8 pg/mL, the “Colon weight:length” value ([1]; 3 mg/kg BID oral) was 0.024 ± 0.003 and the “% Inhibition of induction window between naïve and vehicle animals” value ([1]; 3 mg/kg BID oral, colon weight:length) was 90%. For the same compound, the “Colon weight:length” value ([1]; additional study, 0.03 mg/kg) was 0.033 ± 0.002, the “Colon weight:length” value ([1]; additional study, 0.3 mg/kg) was 0.041 ± 0.005 and the “Colon weight:length” value ([1]; additional study, 3 mg/kg) was 0.034 ± 0.003. The pIC50 (c-Src) was 7.62, the LP inflammation (TNBS-induced colitis; [2]) was 3.8 ± 0.4 and the Ulcer grade (TNBS-induced colitis; [2]) was 3.6 ± 0.5. For the same compound, the “inflammatory cell infiltrate in the reticular and laminar propria zones” value (TNBS-induced colitis; dosed orally at 5 mg/kg) was “marked reduction” and the “ulcer grade and epithelial repair compared to the vehicle control” value (TNBS-induced colitis; dosed orally at 5 mg/kg) was “marked improvements”.
